These are literature values, as cited in US7723528B2, “Sulfur transfer reagents for oligonucleotide synthesis” (AM Chemicals LLC, priority 2008, dated 2010).

The conditions of the data set: background statement.

With `O=C1SS(=O)(=O)c2ccccc21` [Beaucage reagent, 3H-1,2-benzodithiol-3-one-1,1-dioxide], the Hydrolytic stability entry is given as “rather low”.

As to `CCOc1nc(=O)ss1` [EDITH, 3-ethoxy-1,2,4-dithiazoline-5-one], the Hydrolytic stability entry is listed as “rather low”.
